This is an account of results in US3974140A, “Ureidoacetamido-penicillins” (Bayer Aktiengesellschaft, priority 1970, dated 1976).

The subject of series [1] is Psdm. aerug. Walter. In words: MIC, liquid medium test tube series dilution test. Format: cell-based, Pseudomonas aerug. To be noted: 24 hours, 37°C. The method in brief:
(§1)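 Broth tube serial dilution in complete nutrient medium; tubes read after 24 hours' incubation at 37°C. MIC taken as the concentration in the non-turbid tube of the dilution series, expressed in units/ml.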

Series [2] deals with Psdm. aerug. Bonn. In words: MIC, liquid medium test tube series dilution test. Format: cell-based, Pseudomonas aerug. The settings on record: 24 hours, 37°C. The method in brief:
as §1

The test system of series [3] is Staph. aureus 133. In words: MIC, liquid medium test tube series dilution test. Format: cell-based, Staphylococcus aureus. The settings on record: Staph. aureus 133, 24 hours, 37°C. The method in brief:
as §1

In series [4] the test system is Staph. aureus 1777 E. In words: MIC, liquid medium test tube series dilution test. Format: cell-based, Staphylococcus aureus. To be noted: 24 hours, 37°C. Summed up: as §1
The subject of series [5] is Proteus vulg. 1017. Description: MIC, liquid medium test tube series dilution test. Format: cell-based, Proteus vulgaris. The settings on record: Proteus vulg. 1017, 24 hours, 37°C. The method in brief: as §1
For series [6], the system named is Proteus vulg. 3400. In words: MIC, liquid medium test tube series dilution test. Format: cell-based, Proteus vulgaris. To be noted: Proteus vulg. 3400, 24 hours, 37°C. The method in brief: as §1
Series [7] deals with E. coli C 165. In words: MIC, liquid medium test tube series dilution test. Format: cell-based. To be noted: E. coli C 165, 24 hours, 37°C. The method in brief: as §1
Series [8] concerns E. coli 14. In words: MIC, liquid medium test tube series dilution test. Format: cell-based. The settings on record: E. coli 14, 24 hours, 37°C. Summed up: as §1
For series [9], the system named is Klebsiella 63. In words: MIC, liquid medium test tube series dilution test. To be noted: Klebsiella 63, 24 hours, 37°C. Format: cell-based. Summed up:
as §1

Series [10] relates to E. coli 183/58. In words: MIC, liquid medium test tube series dilution test. Format: cell-based. The settings on record: E. coli 183/58, 24 hours, 37°C. The method in brief:
as §1

The test system of series [11] is Klebsiella K 10. Description: MIC, liquid medium test tube series dilution test. Format: cell-based. To be noted: Klebsiella K 10, 24 hours, 37°C. The method in brief:
as §1

Series [12] deals with E. coli A 261. In words: MIC, liquid medium test tube series dilution test. Format: cell-based. To be noted: E. coli A 261, 24 hours, 37°C. The method in brief: as §1
Series [13] relates to Klebsiella. To be noted: background statement; cited from earlier work.
The test system of series [14] is Staph. aureus 133. In words: Surviving mice after intraperitoneal infection and subcutaneous therapy. Format: in vivo, white mice, CF1 strain. To be noted: 2 × 200 units/mouse s.c. The method, then:
(§2) The experiments on animals (see Table 3) were carried out with white mice of the CF1 strain. The infection took place intraperitoneally with the particular bacterium indicated.

A short description of series [15]: Acute toxicity (LD50), intravenous injection into the vein of the tail. Format: in vivo. The settings on record: mouse, in vivo, iv. From the text:
Acute toxicity (LD50) in white mice after
intravenous injection into the vein of the […]

The subject of series [16] is Pseudomon. aer. F 41. Description: Surviving mice after intraperitoneal infection and subcutaneous therapy. Format: in vivo, white mice, CF1 strain. To be noted: 30 min before and 2, 4, 6 hours after infection, 1st day. On the procedure:
as §2

The subject of series [17] is Streptoc. faec. ATCC 9790. Description: MIC, liquid medium test tube series dilution test. Format: cell-based. The settings on record: Strep. faec. (Enterococcus) ATCC 9790, 24 hours, 37°C. The method in brief:
as §1

Series [18] concerns E. coli. Description: MIC, liquid medium test tube series dilution test. Format: cell-based. The settings on record: strain not given, 24 hours. Summed up: as §1
A short description of series [19]: Acid stability. Format: physicochemical. To be noted: pH 1 where stated.
Series [20] has as its system Proteus vulgaris 1017. Description: Reduction in number of bacteria/ml of blood after subcutaneous administration. Format: in vivo, mouse. The text has this: Reduction in number of bacteria/ml of blood after subcutaneous
administration of Penicillin No. 83.
Infection took place intraperitoneally with Proteus vulgaris 1017, 8
× 10^5 /mouse; ampicillin-resistant.

For series [21], the system named is Psdm. aerug. Walter. In words: Surviving mice after intraperitoneal infection and subcutaneous therapy. Format: in vivo, white mice, CF1 strain. The settings on record: compared with carbenicillin. The method, then:
as §2

As to `CC1(C)S[C@@H]2[C@H](NC(=O)[C@H](N)c3ccccc3)C(=O)N2[C@H]1C(=O)O` [Ampicillin, D(-)-α-Aminobenzylpenicillin, reference compound], the MIC in series [1] is on record as 200 units/ml; in series [2], 200 units/ml; in series [3], less than 1.0 units/ml; in [4], 200 units/ml; in series [5] it was 400 units/ml; in series [6], greater than 400 units/ml. Moreover, the MIC in series [7] is 6.25 units/ml; in series [8], ~ 0.8 units/ml; in series [9], 100-200 units/ml; in series [10], 200 units/ml; in series [11], 100-200 units/ml; in [12], greater than 400 units/ml. Also, the “Effectiveness against Klebsiella infections” value in series [13] was “not capable of effectively combating Klebsiella infections”. For the same compound, the “Number of surviving mice” value in [14] (1 day), in series [14] (2 days), in [14] (3 days) and in [14] (5 days) was 100% throughout.
As usually defined, the LD50 is the dose expected to kill half of the subjects tested. A lower LD50 goes with a more toxic substance. `CC1(C)S[C@@H]2[C@H](NC(=O)C(C(=O)O)c3ccccc3)C(=O)N2[C@H]1C(=O)O` (some centres unmarked) [Carbenicillin] came in with an LD50 in series [15] of 2700 mg/kg. Further, the “Effectiveness against Klebsiella infections” value in [13] is “only effective in man in the case of infections by Klebsiella bacteria if it is administered in continuing high doses”. Further, the “Number of surviving mice” value in [16] (Dose E = 50,000 units/kg) is recorded as 0%; in series [16] (Dose F = 75,000 units/kg) it was 20%; in [16] (Dose G = 150,000 units/kg), 70%; in series [16] (Dose H = 200,000 units/kg), 70%.
Consider `Cc1ccc(C(=O)N(C)C(=O)N[C@@H](C(=O)N[C@@H]2C(=O)N3[C@@H]2SC(C)(C)[C@@H]3C(=O)O)c2ccccc2)cc1` [Example 73, Sodium D(-)-α-(3-p-methylbenzoyl-3-methyl-ureido)-benzylpenicillin], for which the MIC was ~ 50 units/ml in series [1]; 12.5 units/ml in series [2]; 0.78 units/ml in series [3]; 6.25 units/ml in series [5]; 12.5 units/ml in series [6]; 50-100 units/ml in series [17]. The MIC in series [7] is 6.25 units/ml; in series [8] it was 3.12 units/ml; in series [9], 12.5-25 units/ml; in series [10], 1.56 units/ml; in [11] it was 25-50 units/ml; in series [12], 200-400 units/ml. Moreover, the “Effectiveness (MIC)” value in series [18] is 312 units/ml. In addition, the “Number of surviving mice” value in series [14] (1 day) was 80%; in series [14] (2 days), 70%; in series [14] (3 days) it was 50%; in series [14] (5 days), 40%.
Turning to `COc1ccc(C(=O)N(C)C(=O)N[C@@H](C(=O)N[C@@H]2C(=O)N3[C@@H]2SC(C)(C)[C@@H]3C(=O)O)c2ccccc2)cc1[N+](=O)[O-]` [Example 83, Sodium D(-)-α-(3-[4-methoxy-3-nitrobenzoyl]-3-methyl-ureido)-benzylpenicillin], in [15], the LD50 is greater than 1200 mg/kg. The MIC is listed as 100 units/ml in series [1]; 50 units/ml in [2]; less than 0.78 units/ml in [3]; 25 units/ml in series [5]; 6.25 units/ml in series [6]; 100 units/ml in series [17]. Also, the MIC in series [7] stood at 6.25 units/ml; in [8] it was 3.12 units/ml; in series [9], 50 units/ml; in series [10], 6.25 units/ml; in [11], 25 units/ml; in series [12], 400 units/ml. The Stability to acid result in series [19] is listed as “remain microbiologically active at pH 1 for over one hour”. Besides, the “Number of bacteria/ml of blood” value in series [20] (1 × 50,000 units/kg s.c. 30 min after infection, 30 mins.) is listed as 9 × 10^3 bacteria/ml of blood; in series [20] (1 × 50,000 units/kg s.c., 60 mins.), 7 × 10^3 bacteria/ml of blood; in [20] (1 × 50,000 units/kg s.c., 90 mins.), 2 × 10^3 bacteria/ml of blood; in series [20] (1 × 50,000 units/kg s.c., 120 mins.), 1 × 10^3 bacteria/ml of blood; in series [20] (1 × 50,000 units/kg s.c., 150 mins.), 3 × 10^3 bacteria/ml of blood; in series [20] (1 × 50,000 units/kg s.c., 180 mins.) it was 8 × 10^3 bacteria/ml of blood. Further, the “Number of bacteria/ml of blood” value is 8 × 10^3 bacteria/ml of blood in series [20] (50,000 units/kg s.c. after 30 and 90 min, 60 mins.); ~5 × 10^3 bacteria/ml of blood in [20] (50,000 units/kg s.c. after 30 and 90 min, 90 mins.); 2 × 10^2 bacteria/ml of blood in series [20] (50,000 units/kg s.c. after 30 and 90 min, 120 mins.); < 10^1 bacteria/ml of blood in series [20] (50,000 units/kg s.c. after 30 and 90 min, 150 mins.); < 10^1 bacteria/ml of blood in series [20] (50,000 units/kg s.c. after 30 and 90 min, 180 mins.); 2 × 10^4 bacteria/ml of blood in series [20] (50,000 units/kg s.c. after 30 min and further 50,000 units/kg after 90 min, 30 mins.). The “Number of surviving mice” value in series [14] (1 day) is 80%; in [14] (2 days), 70%; in [14] (3 days), 70%; in series [14] (5 days), 70%.
`CN(C(=O)N[C@@H](C(=O)N[C@@H]1C(=O)N2[C@@H]1SC(C)(C)[C@@H]2C(=O)O)c1ccccc1)C(=O)c1ccccc1Cl` [Example 107]: the MIC in series [1] is 0.8-4 units/ml; in series [2], 0.8-4 units/ml; in series [3] it was less than 0.8 units/ml; in [4], 20-100 units/ml; in series [5], 0.8-4 units/ml; in series [6] it was 0.8-4 units/ml. In addition, the MIC in series [17] is 4-20 units/ml; in series [7] it was less than 0.8 units/ml; in series [8] it was less than 0.8 units/ml; in [9], 4-20 units/ml; in [10], less than 0.8 units/ml; in [11], ~ 4 units/ml. Besides, the “Effectiveness in animal experiments against Pseudomonas aerug. Walter” value in series [21] was “better than carbenicillin”.
